We go through two compounds from ChEMBL document CHEMBL1136872, “Potent and selective alpha1A adrenoceptor partial agonists--novel imidazole frameworks” (Bioorg Med Chem Lett, 2009).

Structures are written as SMILES.

Data set [1] is described as follows: Clearance in rat at 0.3 mg/kg, […]. Conditions: in vivo; call rule not given here. The arrangement: dose 0.3 mg/kg. The class given is ADME, organism-based.
Data set [2] is described as follows: Partition coefficient, log D at pH 7.4. Particulars: octanol/water, pH 7.4, logD.
The target in data set [3] is T1, Alpha-1B adrenergic receptor (Homo sapiens, UniProt P35368).
T1 sequence (P35368 whole entry): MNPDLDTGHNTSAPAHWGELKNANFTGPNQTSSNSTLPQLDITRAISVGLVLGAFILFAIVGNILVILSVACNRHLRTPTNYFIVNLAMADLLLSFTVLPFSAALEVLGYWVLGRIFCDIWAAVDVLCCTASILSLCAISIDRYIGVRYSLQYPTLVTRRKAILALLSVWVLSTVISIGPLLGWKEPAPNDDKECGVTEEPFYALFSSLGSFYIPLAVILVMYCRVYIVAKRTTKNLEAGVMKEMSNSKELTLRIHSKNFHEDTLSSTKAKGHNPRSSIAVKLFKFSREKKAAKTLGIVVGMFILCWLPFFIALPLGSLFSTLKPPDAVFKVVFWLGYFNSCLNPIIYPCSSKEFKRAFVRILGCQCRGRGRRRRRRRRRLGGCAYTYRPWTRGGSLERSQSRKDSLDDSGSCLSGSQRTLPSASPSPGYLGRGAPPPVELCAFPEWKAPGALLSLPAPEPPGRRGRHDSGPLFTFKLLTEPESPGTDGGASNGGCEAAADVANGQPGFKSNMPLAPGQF
The data set is described as follows: Agonist activity at human cloned adrenergic Alpha-1B receptor expressed in CHO cells assessed as calcium mobilization by FLIPR. The class given is functional, cell-based.

For data set [4], the system named is Rattus norvegicus. The data set is described as follows: Volume of distribution at steady state in rat at 0.3 mg/kg, […]. It is filed as ADME, organism-based. The arrangement: dose 0.3 mg/kg. Conditions: in vivo.
Data set [5] can be described thus: Membrane permeability by PAMPA assay. It is filed as ADME. Particulars: read-out: Papp.
A short description of data set [6]: Solubility in buffer solution at pH 1 to 9. The class given is physicochemical.
The target in data set [7] is T2, Alpha-1A adrenergic receptor (Homo sapiens, UniProt P35348).
T2 sequence (P35348 whole entry): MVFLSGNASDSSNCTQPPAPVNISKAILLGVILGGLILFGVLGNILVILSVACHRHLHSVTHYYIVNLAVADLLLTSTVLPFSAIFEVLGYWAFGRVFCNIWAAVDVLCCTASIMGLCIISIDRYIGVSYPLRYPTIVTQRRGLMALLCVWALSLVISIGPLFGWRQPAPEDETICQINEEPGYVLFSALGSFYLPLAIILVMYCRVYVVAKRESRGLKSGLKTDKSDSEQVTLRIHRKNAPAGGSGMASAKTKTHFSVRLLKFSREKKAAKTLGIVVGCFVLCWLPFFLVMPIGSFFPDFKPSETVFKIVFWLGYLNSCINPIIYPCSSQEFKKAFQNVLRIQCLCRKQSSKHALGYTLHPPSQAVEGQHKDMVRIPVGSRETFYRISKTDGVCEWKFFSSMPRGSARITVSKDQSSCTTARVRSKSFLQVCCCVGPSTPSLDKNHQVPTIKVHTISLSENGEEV
The data set is described as follows: Agonist activity at human cloned adrenergic alpha1A receptor expressed in CHO cells assessed as calcium mobilization by FLIPR. The class given is functional, cell-based.

Data set [8] is described as follows: (§1) Intrinsic clearance in human liver microsomes. It is filed as ADME, Microsome. Conditions: liver microsomes.
Data set [9] concerns the target T3, Alpha-1D adrenergic receptor (Homo sapiens, UniProt P25100).
T3 sequence (P25100 whole entry): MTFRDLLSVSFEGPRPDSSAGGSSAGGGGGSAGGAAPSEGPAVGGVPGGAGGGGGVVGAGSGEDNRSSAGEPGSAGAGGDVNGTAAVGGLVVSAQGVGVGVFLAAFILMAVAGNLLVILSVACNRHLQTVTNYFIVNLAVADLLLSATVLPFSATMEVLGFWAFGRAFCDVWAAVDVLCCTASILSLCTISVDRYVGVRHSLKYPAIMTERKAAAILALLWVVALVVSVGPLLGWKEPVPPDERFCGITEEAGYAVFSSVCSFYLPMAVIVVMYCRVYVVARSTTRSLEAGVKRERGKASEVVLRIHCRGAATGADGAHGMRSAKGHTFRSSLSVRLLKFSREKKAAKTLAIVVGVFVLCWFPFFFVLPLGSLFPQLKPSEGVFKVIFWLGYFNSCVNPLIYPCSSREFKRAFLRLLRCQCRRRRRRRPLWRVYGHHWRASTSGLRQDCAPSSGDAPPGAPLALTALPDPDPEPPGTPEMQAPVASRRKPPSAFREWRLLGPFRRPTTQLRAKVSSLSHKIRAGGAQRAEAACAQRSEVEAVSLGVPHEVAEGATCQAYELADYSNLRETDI
The data set can be described thus: Agonist activity at human cloned adrenergic Alpha-1D receptor expressed in CHO cells assessed as calcium mobilization by FLIPR. The class given is functional, cell-based.

Data set [10] addresses Voltage-gated inwardly rectifying potassium channel KCNH2 (Homo sapiens, UniProt Q12809). The data set is described as follows: Inhibition of human ERG potassium channel up to 22 uM.
Data set [11] concerns the target T4, Alpha-2A adrenergic receptor (Homo sapiens, UniProt P08913).
T4 sequence (P08913 whole entry): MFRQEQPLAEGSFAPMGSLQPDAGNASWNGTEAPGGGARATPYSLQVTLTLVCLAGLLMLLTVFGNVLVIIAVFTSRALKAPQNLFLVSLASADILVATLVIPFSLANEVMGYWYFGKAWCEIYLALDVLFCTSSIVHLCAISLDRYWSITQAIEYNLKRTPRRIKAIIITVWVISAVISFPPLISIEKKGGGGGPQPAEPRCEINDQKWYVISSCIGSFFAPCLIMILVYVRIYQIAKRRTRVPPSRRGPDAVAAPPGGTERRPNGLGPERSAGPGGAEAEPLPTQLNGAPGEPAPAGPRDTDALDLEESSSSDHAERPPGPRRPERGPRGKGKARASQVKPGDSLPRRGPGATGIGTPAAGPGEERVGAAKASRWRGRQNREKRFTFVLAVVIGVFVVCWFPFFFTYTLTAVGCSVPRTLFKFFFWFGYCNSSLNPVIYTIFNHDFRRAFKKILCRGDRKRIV
The data set can be described thus: Agonist activity at human cloned adrenergic alpha2A receptor expressed in CHOK1 cells by beta-lactamase reporter gene assay. The class given is functional, cell-based, CHO-K1. Particulars: cho-k1. (In general: A reporter such as luciferase makes a cellular process visible.)

Data set [12] concerns Liver microsomes. The description is as §1. The class given is ADME, Microsome. Particulars: microsomes.

Chain of Voltage-gated inwardly rectifying potassium channel KCNH2 (Q12809 whole entry): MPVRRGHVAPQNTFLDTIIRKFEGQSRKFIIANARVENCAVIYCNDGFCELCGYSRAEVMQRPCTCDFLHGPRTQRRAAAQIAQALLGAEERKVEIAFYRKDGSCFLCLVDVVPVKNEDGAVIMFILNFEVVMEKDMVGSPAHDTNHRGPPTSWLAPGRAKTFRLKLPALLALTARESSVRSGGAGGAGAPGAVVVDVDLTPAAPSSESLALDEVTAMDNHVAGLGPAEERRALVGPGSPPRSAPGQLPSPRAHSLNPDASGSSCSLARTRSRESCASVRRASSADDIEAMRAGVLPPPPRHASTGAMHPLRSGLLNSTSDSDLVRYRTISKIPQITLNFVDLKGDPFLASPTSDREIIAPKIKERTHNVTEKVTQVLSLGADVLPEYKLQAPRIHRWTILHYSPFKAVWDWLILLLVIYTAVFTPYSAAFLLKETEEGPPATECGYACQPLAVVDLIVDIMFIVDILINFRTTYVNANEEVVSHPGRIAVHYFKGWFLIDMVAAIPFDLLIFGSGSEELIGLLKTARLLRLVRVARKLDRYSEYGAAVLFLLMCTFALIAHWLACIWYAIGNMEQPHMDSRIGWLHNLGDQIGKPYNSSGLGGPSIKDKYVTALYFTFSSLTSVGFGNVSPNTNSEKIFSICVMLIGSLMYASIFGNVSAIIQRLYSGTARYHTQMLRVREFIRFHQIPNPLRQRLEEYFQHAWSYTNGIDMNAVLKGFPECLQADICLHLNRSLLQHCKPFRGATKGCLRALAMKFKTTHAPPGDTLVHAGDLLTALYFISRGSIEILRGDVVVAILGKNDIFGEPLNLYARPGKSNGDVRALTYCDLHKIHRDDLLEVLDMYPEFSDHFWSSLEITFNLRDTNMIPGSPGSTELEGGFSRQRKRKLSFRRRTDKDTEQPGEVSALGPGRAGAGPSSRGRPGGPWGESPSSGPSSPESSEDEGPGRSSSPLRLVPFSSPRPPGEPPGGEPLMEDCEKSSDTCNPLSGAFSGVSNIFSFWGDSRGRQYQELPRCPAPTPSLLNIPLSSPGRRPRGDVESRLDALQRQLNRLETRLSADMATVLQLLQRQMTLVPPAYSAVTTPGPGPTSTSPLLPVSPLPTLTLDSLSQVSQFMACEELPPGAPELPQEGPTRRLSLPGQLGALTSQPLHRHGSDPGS

As a reminder, the CL/F is the apparent clearance, not corrected for the fraction that reaches the circulation. For orientation: logD means the decadic logarithm of the distribution of all forms, ionised or not, between an organic phase and buffer at a given pH. Lower therefore signals lower lipophilicity. By EC50 is commonly meant the midpoint of the concentration-response curve. For orientation: Papp means the rate of passage across a membrane or cell layer, normalised by area and donor concentration. The solubility is the concentration that dissolves in the medium under given conditions. A higher solubility goes with a readily soluble substance. As a reminder, the microsomal CLint is the rate of metabolic loss divided by the concentration. Read a high microsomal CLint as faster metabolism. As to `N#Cc1ccccc1C1Cc2nccn2C1` (configuration not stated), the CL/F in data set [1] is 34 mL/min/kg. The compound also showed a logD in data set [2] of 1.3. Besides, the EC50 in [3] was over 10 µM; in data set [7] it was 0.051 µM; in [9], over 10 µM. In addition, in data set [4], the Vdss was determined as 1.5 L/kg. In addition, the Papp in data set [5] was found to be 23 ×10⁻⁶ cm/s. Moreover, the solubility in [6] is over 500 µg/mL. The same compound returned a microsomal CLint in data set [8] of under 7 µL/min/mg. The Activity entry in data set [10] is recorded as “Not Active”.
On to `c1ccc(C2Cc3nccn3C2)cc1` (single isomer, unassigned; enantiomer 1), for which the EC50 in [11] is over 10 µM; in data set [3] (cho) it was over 10 µM; in [7], 0.073 µM; in [9], 7.36 µM. Moreover, the logD in data set [2] was determined as 1.9. In data set [5], the Papp turned out to be 51 ×10⁻⁶ cm/s. The CL in data set [12] is 15 µL/min/mg.
